According to patent publication US20070105162A1, “Monovalent avidin and streptavidin compositions” (Massachusetts Institute of Technology, priority 2005, published 2007):

Columns and labels:
[1] = Electrospray ionization mass spectrometry: biotin molecules bound per avidin tetramer; assay type: binding; details: spectra with or without biotin
Experimental: Biospin columns (Bio-Rad) are equilibrated by spinning 5 times in 500 μL of 15 mM ammonium acetate pH 7.8 at 1000 g for 2 min. Then 30-50 μL of 30 μM protein in PBS is buffer-exchanged into 15 mM ammonium acetate pH 7.8 using the pre-equilibrated Biospin columns by spinning for 20 s at 1000 g. To ensure that PBS is completely removed, the flow-through is again buffer-exchanged with a second pre-equilibrated column for 20 s. This procedure also removes free biotin when the starting 30 μM avidin forms are incubated with 200 μM biotin. Less than 2 min before introducing into the mass spectrometer, the buffer-exchanged samples are diluted with a solution of 1:1 15 mM ammonium acetate pH 7.8 and 78% acetonitrile, 0.01% trifluoroacetic acid.
An Advion nanospray robot (Advion BioSystems, Ithica, N.Y.) with a back-pressure of 0.45 Psi introduces the samples into the mass spectrometer, an 8.5 Tesla custom-built Electrospray Ionisation-Fourier Transform Mass Spectrometer. To visualize the non-covalent tetramers and non-covalent biotin binding in the high m/z range, the following settings are used: Chirp rate=750 Hz, Amplitude=0.5 V p-p, Tube lens=200 V, Capillary heater 2 V, Quad filter=−20 V, Skimmer=0 V, Capillary offset=34 V, X-fer=−110 V, Leak gas=4.2×10^−5 Torr. The capillary heater is kept low and the Quad filter and Skimmer are kept either high or off to prevent subunit dissociation. The transfer is set to this low value of −110 V in order to visualize the high m/z region.
The masses are calculated manually by first determining the charge state. The final mass is determined by multiplying the observed m/z by the charge and subtracting the mass corresponding to the addition of protons to give that charge. This calculation is repeated for each charge state and the mean and standard deviation reported. The spectra are calibrated with tetrameric avidin, after its monomer mass is determined under denaturing conditions. […]

[2] = tested on: biotinylated AP-CFP-TM on HeLa cells; test: Staining of biotinylated AP-CFP-TM on HeLa with Alexa Fluor 568-conjugated avidins; assay type: cell-based; details: avidin, Alexa Fluor 568 conjugate
Experimental: Enzymatic biotinylation and imaging of HeLa transfectants are performed as previously described (Howarth, M. et al., Proc. Natl. Acad. Sci. USA 102: 7583-7588, 2005), except instead of 10 μM biotin and 1 mM ATP, we add 10 μM biotin-AMP (synthesized according to Coleman and Huang; Coleman, T. M. and Huang, F. Chem. Biol. 9: 1227-1236, 2002) to give equivalent biotinylation but minimizing the risk of purinoreceptor activation by ATP (Rathbone, M. P. et al., Prog. Neurobiol. 59: 663-690, 1999). […] Biotinylation of neurons is performed at day in vitro (DIV) 8 in Hanks' Balanced Salt Solution (HBSS) (Invitrogen) with 0.2 μM biotin ligase and 10 μM biotin-AMP for 5 min at 37° C. […] Neurons are washed with NeuroBasal media (Invitrogen) supplemented with B-27 (Invitrogen), 50 U/mL penicillin, 50 μg/mL streptomycin, and 0.2 mM L-glutamine and chased in the same medium for 0 or 2 hr at 37° C. Cells are then fixed in −20° C. methanol. There was no signal from wild-type avidin labeling if neurons were instead transfected with Ala-neuroligin-1 containing a point mutation in AP, confirming the specificity of labeling. […]
Images of HeLa cells are collected on a Zeiss Axiovert 200M inverted epifluorescence microscope using a 40× oil-immersion lens and a MicroMAX CCD camera (Roper Scientific; Tucson, Ariz.). CFP (420DF20 excitation, 450DRLP dichroic, 475DF40 emission) and Alexa568 (560DF20 excitation, 585DRLP dichroic, 605DF30 emission) images are collected and analyzed using OpenLab software (Improvision; Lexington, Mass.). Fluorescence images are background-corrected. […] Images are scaled to 16 bits and analyzed in Northern Eclipse (Empix Imaging; Ontario, Canada) with user-written software. […] Results are then calculated in terms of clusters per micrometer of dendrite. For assessment of pre-synaptic terminals, clusters are determined as before and average grey levels of clusters are compared between transfected dendrites and untransfected dendrites within the same field of view. […] “n” represents the number of transfected neurons for which clusters were measured. […]

Row | biotin binding per avidin tetramer by mass spectrometry (in words) [1] | Substance | Alexa staining of biotinylated AP-CFP-TM [2]
1 | single biotin | A1D3: Monovalent streptavidin tetramer: one His6-tagged wild-type (A) subunit and three dead (D) subunits [Tetramer A1D3] | detected equally well
2 | No biotin binding | D4: Streptavidin tetramer with 4 dead subunits (D: N23A, S27D, S45A, SEQ ID NO:3) [Tetramer D4] | no detectable staining
